# PubChem BioAssay (NCI)
# Where “and” joins values, the source holds several entries; their conditions need not be identical. Equal values may be shown once.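 Each compound was tested at five concentrations against cells in 96-well plates for 48 hours. GI50 is the concentration that inhibits growth by half. TGI is the concentration that stops growth completely.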
# Columns and labels:
# Test in all cases: inhibition of tumour cell growth, NCI panel, 48 h
# [1] = tested on: KM12 colon
# [2] = tested on: KM20L2 colon
# [3] = tested on: LXFL 529 NSCLC
# [4] = tested on: NCI-H226 lung
# [5] = tested on: OVCAR-4 ovarian
# [6] = tested on: OVCAR-5 ovarian
# [7] = tested on: OVCAR-8 ovarian
# [8] = tested on: UACC-62 melanoma
# [9] = tested on: MCF7 breast
# [10] = tested on: NCI/ADR-RES ovarian
# [11] = tested on: BT-549 breast
SMILES,TGI [1],TGI [2],TGI [3],TGI [4],TGI [5],TGI [6],TGI [7],TGI [8],TGI [9],GI50 [4],TGI [10],GI50 [5],TGI [11],GI50 [11],GI50 [1],GI50 [6],GI50 [7],GI50 [8]
O=C1NC2(C=Cc3c(ccc4ccccc34)O2)Oc2ccccc21 (stereo unspecified),41.1 µM,> 100 µM,56.4 µM,74.1 µM,> 100 µM,> 100 µM,> 100 µM,> 100 µM,,,,,,,,,,
CCCCCCCCCCSCC(CO)NC(=O)/C=C/c1c(C)[nH]c(=O)[nH]c1=O (stereo unspecified),> 50 µM,> 50 µM,,> 50 µM and 12.4 µM,4.01 µM,> 50 µM,18.6 µM and 10.4 µM,7.71 µM and 9.48 µM,> 19.3 µM and 17.4 µM,2.18 µM,> 50 µM,0.912 µM and 0.192 µM,,,,,,
c1ccc(CCn2cncn2)cc1,> 100 µM,> 100 µM,> 100 µM,> 100 µM,> 100 µM,> 100 µM,,> 100 µM,,,,,,,,,,
c1ccc(C2[C@@H]3CCCc4ccccc4C3=NN2c2ccccc2)cc1 (stereo partly specified),> 100 µM,> 100 µM,> 100 µM,> 100 µM,> 100 µM,> 100 µM,> 100 µM,,,,,,,,,,,
C#CCCCC(=O)N(C(=O)CS(=O)CC)c1ccccc1 (stereo unspecified),> 100 µM,,,> 100 µM,> 100 µM,> 100 µM,> 100 µM,> 100 µM,> 100 µM,,> 100 µM,,> 100 µM,,,,,
CC(=O)C1(O)Cc2c(O)c3c(c(O)c2C(OC2CC(N)C(O)C(C)O2)C1)C(=O)c1ccccc1C3=O (stereo unspecified),0.713 µM and 0.227 µM,0.203 µM,0.25 µM,0.139 µM and 0.0538 µM,0.996 µM,0.842 µM and 0.23 µM,0.597 µM and 0.817 µM,0.306 µM and 0.0842 µM,1.5 µM,< 0.0113 µM,4.88 µM,0.0663 µM,0.652 µM and 1.2 µM,0.0603 µM,0.0167 µM,0.0261 µM,0.0147 µM,< 0.0123 µM
C=CCN1CCC2(CC1)NC(=O)c1ccccc1O2,> 100 µM,,,> 100 µM,> 100 µM,> 100 µM,> 100 µM,> 100 µM,> 100 µM,,> 100 µM,,> 100 µM,,,,,
O=C1C[C@H](c2ccc(O)c(O)c2)Oc2cc(O)cc(O)c21,> 100 µM,> 100 µM,> 100 µM,> 100 µM,> 100 µM,> 100 µM,> 100 µM,> 100 µM,,,,,,,,,,
CC1=CC(=O)/C(=C/n2c(=S)[nH]c3ccccc32)C(=O)O1,> 100 µM,,,> 100 µM,> 100 µM,> 100 µM,> 100 µM,> 100 µM,> 100 µM,,> 100 µM,,> 100 µM,,,,,
CC1(C)C2CCC(N)(C2)C1O (stereo unspecified),> 100 µM,,,> 100 µM,> 100 µM,> 100 µM,> 100 µM,> 100 µM,> 100 µM,,> 100 µM,,> 100 µM,,,,,
CC(C)N(C(C)C)P(OCCC#N)OC1CC(n2cnc3c(=O)[nH]cnc32)OC1COC(=O)NCCCCCCNC(=O)OC(C)(C)c1ccc(-c2ccccc2)cc1 (stereo unspecified),35.5 µM,> 100 µM,32.5 µM,55.2 µM,38.2 µM,> 100 µM,92.4 µM,35.3 µM,,,,,,,,,,
O=[N+]([O-])c1cc(Cl)ccc1S(=O)(=O)N1CCCc2cc(Cl)ccc21,> 100 µM,,,> 100 µM,> 100 µM,> 100 µM,> 100 µM,> 100 µM,> 100 µM,,> 100 µM,,> 100 µM,,,,,
COc1cccc(-c2cc(=O)c3cc(Cl)cnc3[nH]2)c1,44.2 µM,,,1.57 µM,76.3 µM,> 100 µM,43.9 µM,> 55.6 µM,> 78.8 µM,,0.783 µM,,> 100 µM,,,,,
CN(C)c1ccc(/C=c2/c3cc([N+](=O)[O-])ccc3n3c2cc(-c2ccccc2)[n+]3C)cc1,2.59 µM,,,36 µM,8.33 µM,10.8 µM,27.7 µM,1.87 µM,8.07 µM,,> 100 µM,,13 µM,,,,,
C/C=C1\CC(C(=O)OCC)CCCCCCCCCCC1=O (stereo unspecified),> 100 µM,,,> 100 µM,> 100 µM,> 100 µM,> 100 µM,> 100 µM,> 100 µM,,> 100 µM,,> 100 µM,,,,,
OC1c2ccccc2C(O)C2OC12 (stereo unspecified),> 100 µM,,,> 100 µM,> 100 µM,> 100 µM,> 100 µM,> 100 µM,> 100 µM,,> 100 µM,,> 100 µM,,,,,
C=C1c2nc3ccccc3n2C=C(c2ccc(OC)cc2)N1c1ccc(OCCN2CCOCC2)cc1,> 100 µM,,,> 100 µM,> 100 µM,> 100 µM,> 100 µM,> 100 µM,> 100 µM,,> 100 µM,,> 100 µM,,,,,
COc1ccc2c(c1)-c1[nH]c3ccccc3c1CC2,26.8 µM,,,26.2 µM,32.4 µM,29 µM,25.1 µM,29.4 µM,29.7 µM,,24.3 µM,,31.3 µM,,,,,
O=C(O)CC(O)(C(=O)O)C(O)C(=O)O (stereo unspecified),> 1000 µM,,,> 1000 µM,> 1000 µM,> 1000 µM,> 1000 µM,> 1000 µM,> 1000 µM,,> 1000 µM,,> 1000 µM,,,,,
C=CCC(CNC(=O)OCc1ccccc1)OC(=O)OCc1ccccc1 (stereo unspecified),> 100 µM,,,> 100 µM,> 100 µM,> 100 µM,> 100 µM,> 100 µM,> 100 µM,,> 100 µM,,> 100 µM,,,,,
O=C1OC(=O)C2C1C(c1ccccc1[N+](=O)[O-])C=C(c1ccco1)N2c1ccncc1 (stereo unspecified),4.65 µM,,,> 39.2 µM,29.8 µM,51.6 µM,31.8 µM,36.4 µM,6.73 µM,,52.6 µM,,35.4 µM,,,,,
CCOP(=O)(OCC)C(Nc1ccc(F)cc1)c1ccccc1 (stereo unspecified),> 100 µM,,,> 100 µM,> 100 µM,> 100 µM,> 100 µM,> 100 µM,> 100 µM,,> 100 µM,,> 100 µM,,,,,
CN(C)CCn1nc(N)c2nc3cc(C(F)(F)F)ccc3nc21,> 100 µM,,,> 100 µM,> 100 µM,> 100 µM,> 100 µM,> 100 µM,> 100 µM,,> 100 µM,,> 100 µM,,,,,
COC[C@@H](Cc1ccc(OC)c(OC)c1)[C@@H](COC)Cc1ccc(OC)c(OC)c1,> 100 µM,> 100 µM,> 100 µM,,,> 100 µM,> 100 µM,> 100 µM,,,,,,,,,,
Cc1cc(O)c(C(C)C)cc1N=Cc1ccccc1O,14 µM,,,20.4 µM,9.66 µM,41.2 µM,> 29.6 µM,21.7 µM,78.9 µM,,> 67 µM,,22 µM,,,,,
